# Results from ChEMBL document CHEMBL5528052, “Single Deletion Unmasks Hidden Anti-Gram-Negative Bacterial Activity of an Insect Defensin-Derived Peptide” (J Med Chem, 2024).
# Activity calls are given as the source filed them. No cut-off for these calls is given here. Bridge positions count the residues as written; N and C are the ends. Peptide text beside a SMILES is read from it.
# Experiments:
# Pseudomonas aeruginosa [1] = assay: Antimicrobial activity against Pseudomonas aeruginosa 11092618 at 1 nmol relative to control; format: functional, organism-based
# Ralstonia solanacearum = assay: Antimicrobial activity against Ralstonia solanacearum at 1 nmol relative to control; format: functional, organism-based
# Pseudomonas aeruginosa [2] = assay: Antimicrobial activity against Pseudomonas aeruginosa 11082616 at 1 nmol relative to control; format: functional, organism-based
# Aspergillus nidulans = assay: Antifungal activity against Aspergillus nidulans A28 at 1 nmol relative to control; format: functional, organism-based
# Staphylococcus aureus [3] = assay: Antimicrobial activity against methicillin-resistant Staphylococcus aureus P1386 at 1 nmol relative to control; format: functional, organism-based
# Bacillus subtilis [4] = assay: Antimicrobial activity against Bacillus subtilis CGMCC 1.2428 assessed as lethal concentration; format: functional
# Pseudomonas aeruginosa [5] = assay: Antimicrobial activity against Pseudomonas aeruginosa FRD1 at 1 nmol relative to control; format: functional, organism-based
# Micrococcus luteus [6] = assay: Antimicrobial activity against Micrococcus luteus CGMCC 1.0290 assessed as lethal concentration; format: functional
# Aspergillus niger = assay: Antifungal activity against Aspergillus niger at 1 nmol relative to control; format: functional, organism-based
# Pseudomonas aeruginosa [7] = assay: Antimicrobial activity against Pseudomonas aeruginosa O1 at 1 nmol relative to control; format: functional, organism-based
# [8] = Retention time of the compound by RP-HPLC analysis; format: physicochemical
# Komagataella pastoris = assay: Antifungal activity against Pichia pastoris X33 at 1 nmol relative to control; format: functional, organism-based
# Escherichia coli [9] = assay: Antimicrobial activity against Escherichia coli J45b at 1 nmol relative to control; format: functional, organism-based
# [10] = tested on: Lysinibacillus fusiformis; assay: Antimicrobial activity against Lysinibacillus fusiformis assessed as lethal concentration; format: functional
# Escherichia coli [11] = assay: Antimicrobial activity against Escherichia coli J14b at 1 nmol relative to control; format: functional, organism-based
# Staphylococcus warneri = assay: Antimicrobial activity against Staphylococcus warneri ATCC 1.2824 at 1 nmol relative to control; format: functional, organism-based
# Aspergillus fumigatus = assay: Antifungal activity against Aspergillus fumigatus YJ-407 at 1 nmol relative to control; format: functional, organism-based
# Pseudomonas aeruginosa [12] = assay: Antimicrobial activity against Pseudomonas aeruginosa at 1 nmol relative to control; format: functional, organism-based
# Escherichia coli [13] = assay: Antimicrobial activity against Escherichia coli J16c at 1 nmol relative to control; format: functional, organism-based
# [14] = tested on: Stenotrophomonas maltophilia; assay: Antimicrobial activity against Stenotrophomonas maltophilia CGMCC 1.1788 at 1 nmol relative to control; format: functional, organism-based
# Pseudomonas aeruginosa [15] = assay: Antimicrobial activity against Pseudomonas aeruginosa 11082603 at 1 nmol relative to control; format: functional, organism-based
# Priestia megaterium [16] = assay: Antimicrobial activity against Bacillus megaterium CGMCC 1.0459 assessed as lethal concentration; format: functional
# Staphylococcus aureus [17] = assay: Antimicrobial activity against Staphylococcus aureus J685 at 1 nmol relative to control; format: functional, organism-based
# Staphylococcus aureus [18] = assay: Antimicrobial activity against methicillin-resistant Staphylococcus aureus P1374 assessed as lethal concentration; format: functional
# Escherichia coli [19] = assay: Antimicrobial activity against Escherichia coli J23a at 1 nmol relative to control; format: functional, organism-based
# Staphylococcus [20] = assay: Antimicrobial activity against methicillin-resistant coagulase negative Staphylococcus P1369 assessed as lethal concentration; format: functional
# Streptococcus salivarius = assay: Antimicrobial activity against Streptococcus salivarius ATCC 1.2498 at 1 nmol relative to control; format: functional, organism-based
# Salmonella enterica [21] = assay: Antimicrobial activity against Salmonella enterica ATCC 14028 at 1 nmol relative to control; format: functional, organism-based
# Alcaligenes faecalis = assay: Antimicrobial activity against Alcaligenes faecalis CGMCC 1.1837 at 1 nmol relative to control; format: functional, organism-based
# Aspergillus flavus = assay: Antifungal activity against Aspergillus flavus at 1 nmol relative to control; format: functional, organism-based
# Pseudomonas aeruginosa [22] = assay: Antimicrobial activity against Pseudomonas aeruginosa 374 at 1 nmol relative to control; format: functional, organism-based
# Curtobacterium luteum [23] = assay: Antimicrobial activity against Curtobacterium luteum assessed as lethal concentration; format: functional
# Pseudomonas aeruginosa [24] = assay: Antimicrobial activity against Pseudomonas aeruginosa 11092304 at 1 nmol relative to control; format: functional, organism-based
# Staphylococcus aureus [25] = assay: Antimicrobial activity against Staphylococcus aureus J685 assessed as lethal concentration; format: functional
# Geotrichum candidum = assay: Antifungal activity against Geotrichum candidum CCTCC AY 93038 at 1 nmol relative to control; format: functional, organism-based
# Streptococcus sanguinis [26] = assay: Antimicrobial activity against Streptococcus sanguinis ATCC 1.2497 assessed as lethal concentration; format: functional
# Metarhizium robertsii = assay: Antifungal activity against Metarhizium robertsii at 1 nmol relative to control; format: functional, organism-based
# Pseudomonas aeruginosa [27] = assay: Antimicrobial activity against Pseudomonas aeruginosa DH at 1 nmol relative to control; format: functional, organism-based
# Escherichia coli [28] = assay: Antimicrobial activity against Escherichia coli G2b at 1 nmol relative to control; format: functional, organism-based
# [29] = tested on: Staphylococcus epidermidis; assay: Antimicrobial activity against penicillin-resistant Staphylococcus epidermidis P1389 assessed as lethal concentration; format: functional
# Escherichia coli [30] = assay: Antimicrobial activity against Escherichia coli DH5alpha at 1 nmol relative to control; format: functional, organism-based
# Beauveria bassiana = assay: Antifungal activity against Beauveria bassiana 252 at 1 nmol relative to control; format: functional, organism-based
# Pseudomonas aeruginosa [31] = assay: Antimicrobial activity against Pseudomonas aeruginosa QT1 at 1 nmol relative to control; format: functional, organism-based
# [32] = tested on: Lysinibacillus fusiformis; assay: Antimicrobial activity against Lysinibacillus fusiformis at 1 nmol relative to control; format: functional, organism-based
# Bacillus subtilis [33] = assay: Antimicrobial activity against Bacillus subtilis CGMCC 1.2428 at 1 nmol relative to control; format: functional, organism-based
# [34] = tested on: Staphylococcus epidermidis; assay: Antimicrobial activity against penicillin-resistant Staphylococcus epidermidis P1389 at 1 nmol relative to control; format: functional, organism-based
# Salmonella enterica [35] = assay: Antimicrobial activity against Salmonella enterica ATCC 14028 at 0.25 to 1 nmol; format: functional, organism-based; conditions: dose 0.25-1 nmol
# Streptococcus mutans = assay: Antimicrobial activity against Streptococcus mutans ATCC 1.2499 at 1 nmol relative to control; format: functional, organism-based
# Staphylococcus aureus [36] = assay: Antimicrobial activity against penicillin-resistant Staphylococcus aureus P1383 at 1 nmol relative to control; format: functional, organism-based
# Streptococcus sanguinis [37] = assay: Antimicrobial activity against Streptococcus sanguinis ATCC 1.2497 at 1 nmol relative to control; format: functional, organism-based
# Staphylococcus aureus [38] = assay: Antimicrobial activity against methicillin-resistant Staphylococcus aureus P1374 at 1 nmol relative to control; format: functional, organism-based
# Micrococcus luteus [39] = assay: Antimicrobial activity against Micrococcus luteus CGMCC 1.0290 at 1 nmol relative to control; format: functional, organism-based
# Staphylococcus [40] = assay: Antimicrobial activity against methicillin-resistant coagulase negative Staphylococcus P1369 at 1 nmol relative to control; format: functional, organism-based
# Priestia megaterium [41] = assay: Antimicrobial activity against Bacillus megaterium CGMCC 1.0459 at 1 nmol; format: functional, organism-based
# Curtobacterium luteum [42] = assay: Antimicrobial activity against Curtobacterium luteum at 1 nmol relative to control; format: functional, organism-based
# Erythrocyte = assay: Hemolytic activity in mouse erythrocytes assessed as hemolysis at 100 uM; format: toxicity, cell-based
compound,measurement,setting,value
CC[C@H](C)[C@H](NC(=O)[C@H](C)NC(=O)[C@H](CCCCN)NC(=O)[C@H](CC(N)=O)NC(=O)[C@H](CC(N)=O)NC(=O)[C@H](CS)NC(=O)[C@H](Cc1ccc(O)cc1)NC(=O)[C@H](CS)NC(=O)[C@@H](NC(=O)[C@H](C)N)[C@@H](C)O)C(=O)N[C@@H](CS)C(=O)N[C@H](C(=O)N[C@H](CS)C(=O)N[C@H](CCCNC(=N)N)C(=O)N[C@H](CCCNC(=N)N)C(N)=O)C(C)C,Activity,Pseudomonas aeruginosa [1],inactive
same,Activity,Ralstonia solanacearum,inactive
same,Activity,Pseudomonas aeruginosa [2],inactive
same,Activity,Aspergillus nidulans,inactive
same,Activity,Staphylococcus aureus [3],inactive
same,LD,Bacillus subtilis [4],3.54 µM
same,Activity,Pseudomonas aeruginosa [5],inactive
same,LD,Micrococcus luteus [6],1.96 µM
same,Activity,Aspergillus niger,inactive
same,Activity,Pseudomonas aeruginosa [7],inactive
same,Retention_time,[8],15.2 min
same,Activity,Komagataella pastoris,inactive
same,Activity,Escherichia coli [9],inactive
same,LD,[10],5.35 µM
same,Activity,Escherichia coli [11],inactive
same,Activity,Staphylococcus warneri,inactive
same,Activity,Aspergillus fumigatus,inactive
same,Activity,Pseudomonas aeruginosa [12],inactive
same,Activity,Escherichia coli [13],inactive
same,Activity,[14],inactive
same,Activity,Pseudomonas aeruginosa [15],inactive
same,LD,Priestia megaterium [16],2.44 µM
same,Activity,Staphylococcus aureus [17],inactive
same,LD,Staphylococcus aureus [18],14.29 µM
same,Activity,Escherichia coli [19],inactive
same,LD,Staphylococcus [20],4.31 µM
same,Activity,Streptococcus salivarius,inactive
same,Activity,Salmonella enterica [21],inactive
same,Activity,Alcaligenes faecalis,inactive
same,Activity,Aspergillus flavus,inactive
same,Activity,Pseudomonas aeruginosa [22],inactive
same,LD,Curtobacterium luteum [23],0.13 µM
same,Activity,Pseudomonas aeruginosa [24],inactive
same,LD,Staphylococcus aureus [25],8.34 µM
same,Activity,Geotrichum candidum,inactive
same,LD,Streptococcus sanguinis [26],10.4 µM
same,Activity,Metarhizium robertsii,inactive
same,Activity,Pseudomonas aeruginosa [27],inactive
same,Activity,Escherichia coli [28],inactive
same,LD,[29],4.1 µM
same,Activity,Escherichia coli [30],inactive
same,Activity,Beauveria bassiana,inactive
same,Activity,Pseudomonas aeruginosa [31],inactive
"CC[C@H](C)[C@@H]1NC(=O)[C@H](CCCCN)NC(=O)[C@H](CC(N)=O)NC(=O)[C@H](CC(N)=O)NC(=O)[C@@H]2CSSC[C@H](NC1=O)C(=O)N[C@@H](C(C)C)C(=O)N[C@H](C(=O)N[C@@H](CCCNC(=N)N)C(=O)N[C@@H](CCCNC(=N)N)C(=O)O)CSSC[C@H](NC(=O)[C@@H](NC(=O)[C@H](C)N)[C@@H](C)O)C(=O)N[C@@H](Cc1ccc(O)cc1)C(=O)N2 (H-ATCYCNNKICVCRR-OH; disulfide 3-12, 5-10)",Activity,Pseudomonas aeruginosa [1],inactive
same,Activity,Ralstonia solanacearum,inactive
same,Activity,Pseudomonas aeruginosa [2],inactive
same,Activity,[32],inactive
same,Activity,Aspergillus nidulans,inactive
same,Activity,Staphylococcus aureus [3],inactive
same,Activity,Pseudomonas aeruginosa [5],inactive
same,LD,Micrococcus luteus [6],3.52 µM
same,Activity,Aspergillus niger,inactive
same,Activity,Pseudomonas aeruginosa [7],inactive
same,Retention_time,[8],16 min
same,Activity,Komagataella pastoris,inactive
same,Activity,Escherichia coli [9],inactive
same,Activity,Escherichia coli [11],inactive
same,Activity,Staphylococcus warneri,inactive
same,Activity,Aspergillus fumigatus,inactive
same,Activity,Pseudomonas aeruginosa [12],inactive
same,Activity,Bacillus subtilis [33],inactive
same,Activity,Escherichia coli [13],inactive
same,Activity,[14],inactive
same,Activity,[34],inactive
same,Activity,Salmonella enterica [35],inactive
same,Activity,Pseudomonas aeruginosa [15],inactive
same,LD,Priestia megaterium [16],2.58 µM
same,Activity,Staphylococcus aureus [17],inactive
same,Activity,Escherichia coli [19],inactive
same,LD,Staphylococcus [20],5.3 µM
same,Activity,Streptococcus salivarius,inactive
same,Activity,Salmonella enterica [21],inactive
same,Activity,Streptococcus mutans,inactive
same,Activity,Alcaligenes faecalis,inactive
same,Activity,Aspergillus flavus,inactive
same,Activity,Pseudomonas aeruginosa [22],inactive
same,LD,Curtobacterium luteum [23],4.3 µM
same,Activity,Pseudomonas aeruginosa [24],inactive
same,Activity,Geotrichum candidum,inactive
same,Activity,Staphylococcus aureus [36],inactive
same,Activity,Metarhizium robertsii,inactive
same,Activity,Pseudomonas aeruginosa [27],inactive
same,Activity,Escherichia coli [28],inactive
same,Activity,Streptococcus sanguinis [37],inactive
same,Activity,Escherichia coli [30],inactive
same,Activity,Staphylococcus aureus [38],inactive
same,Activity,Beauveria bassiana,inactive
same,Activity,Pseudomonas aeruginosa [31],inactive
H-ATSYSNNKISVSRR-NH2,Activity,Pseudomonas aeruginosa [1],inactive
same,Activity,Ralstonia solanacearum,inactive
same,Activity,Pseudomonas aeruginosa [2],inactive
same,Activity,[32],inactive
same,Activity,Aspergillus nidulans,inactive
same,Activity,Staphylococcus aureus [3],inactive
same,Activity,Micrococcus luteus [39],inactive
same,Activity,Pseudomonas aeruginosa [5],inactive
same,Activity,Aspergillus niger,inactive
same,Activity,Pseudomonas aeruginosa [7],inactive
same,Activity,Komagataella pastoris,inactive
same,Activity,Escherichia coli [9],inactive
same,Activity,Staphylococcus [40],inactive
same,Activity,Escherichia coli [11],inactive
same,Activity,Staphylococcus warneri,inactive
same,Activity,Aspergillus fumigatus,inactive
same,Activity,Pseudomonas aeruginosa [12],inactive
same,Activity,Bacillus subtilis [33],inactive
same,Activity,Escherichia coli [13],inactive
same,Activity,[14],inactive
same,Activity,[34],inactive
same,Activity,Pseudomonas aeruginosa [15],inactive
same,Activity,Staphylococcus aureus [17],inactive
same,Activity,Escherichia coli [19],inactive
same,Activity,Priestia megaterium [41],Active
same,Activity,Streptococcus salivarius,inactive
same,Activity,Salmonella enterica [21],inactive
same,Activity,Streptococcus mutans,inactive
same,Activity,Alcaligenes faecalis,inactive
same,Activity,Aspergillus flavus,inactive
same,Activity,Pseudomonas aeruginosa [22],inactive
same,Activity,Curtobacterium luteum [42],inactive
same,Activity,Pseudomonas aeruginosa [24],inactive
same,Activity,Geotrichum candidum,inactive
same,Activity,Staphylococcus aureus [36],inactive
same,Activity,Metarhizium robertsii,inactive
same,Activity,Pseudomonas aeruginosa [27],inactive
same,Activity,Escherichia coli [28],inactive
same,Activity,Streptococcus sanguinis [37],inactive
same,Activity,Escherichia coli [30],inactive
same,Activity,Staphylococcus aureus [38],inactive
same,Activity,Beauveria bassiana,inactive
same,Activity,Pseudomonas aeruginosa [31],inactive
H-FFGHLFKLATKIIPSLFQ-OH,Activity,Erythrocyte,Non-Toxic
